From patent US11096923B2, “Pharmaceutical composition containing polymyxin B/trimethoprim based therapeutics” (University of Rochester, priority 2016, dated 2021)

Experiments:
S. aureus UAMS-1 = test: Selleck library screen in presence of sub-inhibitory polymyxin B/trimethoprim; type: cell-based, Staphylococcus aureus; design: key: Growth (+); no growth (−)
[1] = test system: P. aeruginosa strain PA01 biofilms; test: Biofilm susceptibility; type: cell-based, Pseudomonas aeruginosa; conditions: established PA01 biofilm, 24 hrs treatment, 32×MIC
Text: (§1) Bacterial strains used in these studies include the conventional laboratory strains Pseudomonas aeruginosa PA01 and Staphylococcus aureus UAMS-1, both of which are antibiotic susceptible and capable of forming robust biofilms. See […], Thomas J R, Nelson […]. Role of the accessory gene regulator (agr) in pathogenesis of staphylococcal osteomyelitis. Infection and immunity 1995; 63:3373-3380. Seven clinical keratitis isolates of Pseudomonas aeruginosa, were collected from the Flaum Eye Institute, Rochester N.Y. and 25 clinical isolates of Staphylococcus aureus from geographically distinct regions of the country where purchased from International Health Management Associates (IHMA; Schaumburg, Ill.). […] After 24 hrs the remaining media and non-adherent cells were removed, biofilms were suspended in 0.8% NaCl and plated to quantify surviving bacteria. […] Biofilms were treated in increasing increments ranging from 0 to 64×MIC.

S. aureus = test: Fractional inhibitory concentration, checkerboard MIC; type: cell-based, Staphylococcus aureus; conditions: for MIC in combination: PT combined with tobramycin; for MIC: Staphylococcus aureus
P. aeruginosa PAO1 = test: Selleck library screen in presence of sub-inhibitory polymyxin B/trimethoprim; type: cell-based, Pseudomonas aeruginosa; design: key: Growth (+); no growth (−)
[2] = test system: S. aureus UAMS-1 biofilms; test: Biofilm susceptibility; type: cell-based, Staphylococcus aureus; conditions: established S. aureus biofilm, any concentration tested
Text: as §1, with “Ill.). For experiments requiring planktonic cultures, the indicated organism was grown overnight in Luria-Bertani broth (LB; […] Biofilms were established by inoculating individual wells of flat-bottom polystyrene plates (Falcon, Corning Life Sciences; Durham, N.C.) with overnight cultures of the indicated organism into 200 ul of fresh LB to a final concentration of 1×10^7 CFU ml^-1. Plates were placed in a 37° C.-humidified incubator for 72 hours to allow static biofilm formation. Non-adherent cells were aspirated and biofilms were washed twice with phosphate-buffered saline prior to each experiment.” for “Ill.).”

In the case of `NC[C@H]1O[C@H](O[C@H]2[C@H](O)[C@@H](O[C@H]3O[C@H](CO)[C@@H](O)[C@H](N)[C@H]3O)[C@H](N)C[C@@H]2N)[C@H](N)C[C@@H]1O` [Tobramycin, tobramycin], the “S. aureus growth, 5 μM” value (S. aureus UAMS-1; drug 5 μM in presence of 1.2 μg ml^−1 polymyxin B/trimethoprim) is reported as “+”, the “S. aureus growth, 50 μM” value (S. aureus UAMS-1; drug 50 μM in presence of 1.2 μg ml^−1 polymyxin B/trimethoprim) is reported as “−” and the “reduction in biofilm-associated CFU” value [1] is reported as 5 log. The MIC in combination (S. aureus; S. aureus 1071788) was 0.48 µg/mL, the MIC in combination (S. aureus; S. aureus 1094094) was 3.9 µg/mL and the MIC in combination (S. aureus; S. aureus 1094140) was 1.9 µg/mL. The MIC in combination (S. aureus; S. aureus 1094147) was 3.9 µg/mL, the MIC in combination (S. aureus; S. aureus 1094166) was 0.48 µg/mL and the MIC in combination (S. aureus; S. aureus 1094178) was 7.8 µg/mL. The MIC in combination (S. aureus; S. aureus 1097612) was 3.9 µg/mL, the MIC in combination (S. aureus; S. aureus 1097630) was 3.9 µg/mL and the MIC in combination (S. aureus; S. aureus 1101442) was 0.97 µg/mL. The MIC in combination (S. aureus; S. aureus 1103430) was 0.48 µg/mL, the MIC in combination (S. aureus; S. aureus 1110936) was 0.48 µg/mL and the MIC in combination (S. aureus; S. aureus 1111063) was 3.9 µg/mL. For the same compound, the MIC in combination (S. aureus; S. aureus 1122181) was 3.9 µg/mL, the MIC in combination (S. aureus; S. aureus 1122187) was 0.48 µg/mL and the MIC in combination (S. aureus; S. aureus 1122190) was 3.9 µg/mL. The MIC in combination (S. aureus; S. aureus 1122197) was 0.48 µg/mL, the MIC in combination (S. aureus; S. aureus 1125120) was 15.6 µg/mL and the MIC in combination (S. aureus; S. aureus 1132822) was 0.97 µg/mL. For the same compound, the MIC in combination (S. aureus; S. aureus 1142776) was 0.48 µg/mL, the MIC in combination (S. aureus; S. aureus 1144105) was 0.48 µg/mL and the MIC in combination (S. aureus; S. aureus UAMS-1) was 0.48 µg/mL. The MIC (S. aureus; S. aureus 1071788) was 0.97 µg/mL, the MIC (S. aureus; S. aureus 1094094) was 3.9 µg/mL and the MIC (S. aureus; S. aureus 1094140) was 7.8 µg/mL. For the same compound, the MIC (S. aureus; S. aureus 1094147) was 7.8 µg/mL, the MIC (S. aureus; S. aureus 1094166) was 1.9 µg/mL and the MIC (S. aureus; S. aureus 1094178) was 7.8 µg/mL. The MIC (S. aureus; S. aureus 1097612) was 15.6 µg/mL, the MIC (S. aureus; S. aureus 1097630) was 7.8 µg/mL and the MIC (S. aureus; S. aureus 1101442) was 3.9 µg/mL. For the same compound, the MIC (S. aureus; S. aureus 1103430) was 1.9 µg/mL, the MIC (S. aureus; S. aureus 1110936) was 1.9 µg/mL and the MIC (S. aureus; S. aureus 1111063) was 7.8 µg/mL. It also gave an MIC (S. aureus; S. aureus 1122181) of 7.8 µg/mL, an MIC (S. aureus; S. aureus 1122187) of 1.9 µg/mL and an MIC (S. aureus; S. aureus 1122190) of 7.8 µg/mL. The MIC (S. aureus; S. aureus 1122197) was 1.9 µg/mL, the MIC (S. aureus; S. aureus 1125120) was 15.6 µg/mL and the MIC (S. aureus; S. aureus 1132822) was 3.9 µg/mL. For the same compound, the MIC (S. aureus; S. aureus 1142776) was 1.9 µg/mL, the MIC (S. aureus; S. aureus 1144105) was 1.9 µg/mL and the MIC (S. aureus; S. aureus UAMS-1) was 1.9 µg/mL. The “P. aeruginosa growth, 5 μM” value (P. aeruginosa PAO1; drug 5 μM in presence of 0.2 μg ml^−1 polymyxin B/trimethoprim) was “−”, the “P. aeruginosa growth, 50 μM” value (P. aeruginosa PAO1; drug 50 μM in presence of 0.2 μg ml^−1 polymyxin B/trimethoprim) was “−” and the “activity against biofilm-associated cells” value [2] was “neither tobramycin, polymyxin B/trimethoprim nor their combination displayed significant activity”.
